The source of these data is PMC8483441 (Journal of Medicinal Chemistry, 2021).

One data set deals with E. coli. The data set is classed as cell-based, Escherichia coli. Conditions: 24 h. Here is the method: (§1) Human serum was purchased from Sigma (St Louis, USA).
(§2) Incubations were kept at 37 °C for 24 h. Results are the average of three independent studies.

A short description of data set [1]: Cytotoxicity in mammalian cells (MTT assay). The data set is classed as cell-based. The conditions noted are these: MRC-5 cytotoxicity (IC50). On the procedure:
(§3) MRC-5 cells were grown in Eagle’s minimum essential medium (MEMα), supplemented with 10% fetal bovine serum (FBS). 96-well plates were seeded with 3 × 10^4 cells/well and cultured overnight in order to get cells adhered into the plate and then incubated with two-fold peptide serial dilutions. After 4 h of incubation, the medium containing the peptides was replaced by MEMα supplemented with FBS and 3-(4,5-dimethylthiazol-2-yl)-2,5-diphenyltetrazolium bromide (MTT) at 0.4 mg/mL and incubated for 150 min. Detection of formazan crystals in the living cells was done by cell disruption by addition of 200 μL of dimethyl sulfoxide (DMSO) followed by absorbance measuring at 600 nm in a Tecan Infinite F Nano+ microplate reader (Tecan, Germany). Results are the average of three independent studies.

Another data set relates to MRC-5 cells. Put plainly: Cytotoxicity in mammalian cells (MTT assay). The data set is classed as cell-based. The conditions noted are these: 4 h. On the procedure:
as §3
(Formazan colour is commonly taken as a measure of viable cells.)

In the next data set the test system is S. flexneri. The conditions noted are these: 24 h. The source says:
Purified horse red blood cells were acquired from Thermo Fisher Scientific (Hampshire, England). Human serum was purchased from Sigma (St Louis, USA). E. coli was obtained from the Coli Genetic Stock Center (BW25113). S. flexneri (ATCC 29903), A. baumannii (ATCC 15308), Pseudomonas sp. (ATCC 15915), and S. enterica (ATCC 14028) were obtained from the CECT (Valencia, Spain). Clinical strains were supplied by the Vall d’Hebron Hospital (Barcelona, Spain). MRC5 fibroblasts were obtained from the Cytometry and Cell Culture Facility (SCAC, UAB) and originally purchased from ATCC.
The antibiotic activity was defined by the minimum peptide concentration where the microorganism is unable to grow. The assay was done in polypropylene 96-well plates (Greiner, Frickenhausen, Germany) to avoid peptide binding to plate wells. Peptides were dissolved in water containing 0.4% w/v bovine serum albumin (BSA) and 0.02% v/v glacial acetic acid to prevent self-aggregation, following the reference protocol by Wiegand et al.,[42] based on the classical microtiter broth dilution recommended by the […]. Initial bacteria inoculum was adjusted to 5 × 10^5 CFU/mL in Mueller-Hinton (MH) medium. Incubations were kept at 37 °C for 24 h. Results are the average of three independent studies. MIC assays in the presence of serum were performed by incubating the peptide with human serum at a 1:1 ratio. Then, 10^6 cfu/mL of Pseudomonas sp. were incubated with serial dilutions of the peptides for 4 h. To determine the MBC, 50 μL from all wells were seeded into Petri plates and incubated for 24 h. The MBC concentration was attributed to the lowest concentration without detectable bacterial growth for each peptide.

For data set [2], the system named is Pseudomonas sp. Put plainly: Minimum bactericidal concentration (MBC). The data set is classed as cell-based. The conditions noted are these: 50 μL from MIC wells seeded into Petri plates, 24 h; lowest concentration without detectable growth. On the procedure:
as §2

In a further data set the test system is A. baumannii. The data set is classed as cell-based, Acinetobacter baumannii. The conditions noted are these: A. baumannii ATCC 15308; Mueller-Hinton medium, 5 × 10^5 CFU/mL, 37 °C, 24 h; average of three independent studies. On the procedure: as §1, §2
The subject of another data set is horse red blood cells. Put plainly: Hemolytic activity. The data set is classed as cell-based. Conditions: red cells of horse, 4 h. Here is the method: The peptide toxicity was determined detecting the disruption of horse red blood cells, following a previous assay report.[35] 10-fold diluted cells in PBS were centrifuged three times at 800g to eliminate the hemoglobin from disrupted cells. After the last resuspension, erythrocytes were incubated with the peptides for 4 h at 37 °C. The detection was done measuring the supernatant absorbance in a VICTOR3 multilabel plate reader (Perkin Elmer, Waltham, Massachusetts) at 540 nm in a microplate reader. Percentage of hemolysis was calculated through a pattern done with dilutions of total cell lysis done with a 1% Triton X-100 buffer. Results are the average of three independent studies.

Another data set relates to S. enterica. The data set is classed as cell-based, Salmonella enterica. Conditions: 24 h. On the procedure:
as §1, §2

A further data set concerns P. aeruginosa 827632. Put plainly: MIC, clinical bacterial strain. The data set is classed as cell-based. On the procedure:
as §1, §2

The test system of another data set is A. baumannii 3862. Put plainly: MIC, clinical bacterial strain. The data set is classed as cell-based. Here is the method:
as §1, §2

Another data set has as its system A. baumannii 3878. Put plainly: MIC, clinical bacterial strain. The data set is classed as cell-based. On the procedure:
as §1, §2

A further data set deals with A. baumannii 3879. Put plainly: MIC, clinical bacterial strain. The data set is classed as cell-based. Here is the method:
as §1, §2

The subject of another data set is S. typhimurium 324. Put plainly: MIC, clinical bacterial strain. The data set is classed as cell-based. On the procedure: as §1, §2
The test system of another data set is E. coli 116878. Put plainly: MIC, clinical bacterial strain. The data set is classed as cell-based. On the procedure:
as §1, §2

Another data set deals with S. typhimurium 365. Put plainly: MIC, clinical bacterial strain. The data set is classed as cell-based. On the procedure:
as §1, §2

For a further data set, the system named is A. baumannii 3880. Put plainly: MIC, clinical bacterial strain. The data set is classed as cell-based. Here is the method: as §1, §2
Another data set concerns P. aeruginosa 827651. Put plainly: MIC, clinical bacterial strain. The data set is classed as cell-based. On the procedure:
as §1, §2

The subject of the next data set is E. coli cf073. Put plainly: MIC, clinical bacterial strain. The data set is classed as cell-based. On the procedure: as §1, §2
The test system of data set [3] is Pseudomonas sp. Put plainly: MIC, broth microdilution. The data set is classed as cell-based. Conditions: Pseudomonas sp. ATCC 15915; Mueller-Hinton medium, 5 × 10^5 CFU/mL, 37 °C, 24 h; average of three independent studies. Here is the method:
as §1, §2
In general terms: In broth dilution the organism is exposed to a series of concentrations in liquid medium.

The subject of another data set is Escherichia coli. The data set is classed as cell-based. The conditions noted are these: 24 h. Here is the method: as §2
In a further data set the test system is Salmonella enterica. The data set is classed as cell-based. Conditions: 24 h. Here is the method:
as §2

In a further data set the test system is Acinetobacter baumannii. The data set is classed as cell-based. The conditions noted are these: 50 μL from MIC wells seeded into Petri plates, 24 h; lowest concentration without detectable growth. Here is the method: as §2
The test system of another data set is Shigella flexneri. Conditions: 50 μL from MIC wells seeded into Petri plates, 24 h; lowest concentration without detectable growth.
Data set [4] deals with Pseudomonas sp. Put plainly: MIC of peptides incubated with human serum. The data set is classed as cell-based. The conditions noted are these: peptide incubated with human serum 1:1; 10^6 cfu/mL Pseudomonas sp., 4 h. Here is the method: as §2

A word on the IC50: it is the concentration that inhibits the measured activity by half. High values mean weaker potency in that assay, low ones greater potency in that assay.

Values after ≈ are worked out from the molar mass of the structure shown. Square brackets hold non-standard residues; d marks the D form. Ends that are not written are not given here. Peptide text beside a SMILES is read from it. dOrn = NCCC[C@@H](N)C(=O)O; Orn = NCCC[C@H](N)C(=O)O Bounds are passed on as bounds.

Protocol for Shigella flexneri: The antibiotic activity was defined by the minimum peptide concentration where the microorganism is unable to grow. The assay was done in polypropylene 96-well plates (Greiner, Frickenhausen, Germany) to avoid peptide binding to plate wells. Peptides were dissolved in water containing 0.4% w/v bovine serum albumin (BSA) and 0.02% v/v glacial acetic acid to prevent self-aggregation, following the reference protocol by Wiegand et al.,[42] based on the classical microtiter broth dilution recommended by the National Committee of Laboratory Safety and Standards (NCLSS). Initial bacteria inoculum was adjusted to 5 × 10^5 CFU/mL in Mueller-Hinton (MH) medium. Incubations were kept at 37 °C for 24 h. Results are the average of three independent studies. […] To determine the MBC, 50 μL from all wells were seeded into Petri plates and incubated for 24 h. The MBC concentration was attributed to the lowest concentration without detectable bacterial growth for each peptide.

Turning to `CC[C@H](C)[C@H](NC(=O)[C@H](C)NC(=O)[C@H](CCCN)NC(=O)[C@H](CCSC)NC(=O)[C@H](C)NC(=O)[C@@H](NC(=O)[C@@H](NC(=O)[C@H](CCCN)NC(=O)[C@@H]1CCCN1C(=O)[C@H](CO)NC(=O)[C@@H](NC(=O)[C@H](Cc1c[nH]cn1)NC(=O)[C@H](CCC(N)=O)NC(=O)[C@@H](NC(=O)[C@H](C)NC(=O)[C@H](Cc1ccccc1)NC(=O)[C@H](Cc1c[nH]c2ccccc12)NC(=O)[C@H](CCC(N)=O)NC(=O)[C@H](C)NC(=O)[C@H](CCCN)NC(=O)[C@@H](NC(=O)[C@H](Cc1ccccc1)NC(=O)[C@H]1CCCN1C(=O)[C@H](N)CCCN)[C@@H](C)O)[C@@H](C)CC)[C@@H](C)CC)[C@@H](C)O)[C@@H](C)CC)C(=O)N[C@@H](CC(N)=O)C(=O)N[C@@H](CC(N)=O)C(=O)N[C@@H](Cc1ccc(O)cc1)C(=O)N[C@@H](CCCN)C(=O)N[C@@H](Cc1c[nH]c2ccccc12)C(=O)N[C@@H](CCCN)C(N)=O` [peptide 7] (H-[dOrn][dP]FT[Orn]AQWFAIQHISP[Orn]TIAM[Orn]AINNY[Orn]W[Orn]-NH2), in the data set with E. coli, the “MIC E. coli” value is 3.13 µM (≈ 11 µg/mL). For the same molecule, the results for the IC50 (in [1]; in the data set on MRC-5 cells) were at most 230 µM and 170 ± 20 µM, respectively. Moreover, the “MIC S. flexneri” value with S. flexneri came out at 6.25 µM (≈ 21.9 µg/mL). Moreover, the “MBC Pseudomonas sp.” value in the data set on Pseudomonas sp. [2] was 1.56 µM (≈ 5.47 µg/mL). Further, the “MIC A. baumannii” value against A. baumannii came out at 6.25 µM (≈ 21.9 µg/mL). Besides, in the data set on horse red blood cells (250), the “hemolysis % (250 μM peptide)” value is 3.6 ± 0.7%. The “MIC S. enterica” value in the data set with S. enterica is 25 µM (≈ 87.6 µg/mL). In addition, the “MIC P. aeruginosa 827632” value in the data set on P. aeruginosa 827632 was 25 µM (≈ 87.6 µg/mL). For the same molecule, the “MIC A. baumannii 3862” value in the data set with A. baumannii 3862 amounted to 0.78 µM (≈ 2.73 µg/mL). Besides, the “MIC A. baumannii 3878” value in the data set with A. baumannii 3878 was found to be 0.78 µM (≈ 2.73 µg/mL). Further, in the data set on A. baumannii 3879, the “MIC A. baumannii 3879” value worked out at 1.56 µM (≈ 5.47 µg/mL). For the same molecule, the “MIC S. typhimurium 324” value in the data set with S. typhimurium 324 came out at 25 µM (≈ 87.6 µg/mL). Besides, the “MIC E. coli 116878” value against E. coli 116878 turned out to be 6.25 µM (≈ 21.9 µg/mL). Further, the “MIC S. typhimurium 365” value against S. typhimurium 365 was 25 µM (≈ 87.6 µg/mL). Also, the “MIC A. baumannii 3880” value against A. baumannii 3880 amounted to 6.25 µM (≈ 21.9 µg/mL). Besides, the “MIC P. aeruginosa 827651” value in the data set with P. aeruginosa 827651 worked out at 100 µM (≈ 351 µg/mL). For the same molecule, the “MIC E. coli cf073” value against E. coli cf073 was 3.13 µM (≈ 11 µg/mL). In addition, the “MIC Pseudomonas sp.” value in the data set with Pseudomonas sp. [3] amounted to 1.56 µM (≈ 5.47 µg/mL). Further, the “MBC Escherichia coli” value against Escherichia coli came out at 3.13 µM (≈ 11 µg/mL). The “MBC Salmonella enterica” value in the data set with Salmonella enterica came to 25 µM (≈ 87.6 µg/mL). In addition, in the data set on Acinetobacter baumannii, the “MBC Acinetobacter baumannii” value turned out to be 6.25 µM (≈ 21.9 µg/mL). Also, the “MBC Shigella flexneri” value against Shigella flexneri was determined as 6.25 µM (≈ 21.9 µg/mL).

“RPFTRAQWFAIQHISPRTIAMRAINNYRWR-NH2 [peptide 1, hECP30]”: the “MIC E. coli” value in the data set on E. coli was 1.56 µM. The molecule also gave an IC50 in [1] of 23 ± 4 µM. For the same molecule, the “MIC S. flexneri” value with S. flexneri amounted to 3.13 µM. Moreover, the “MBC Pseudomonas sp.” value with Pseudomonas sp. [2] was determined as 1.56 µM. In the data set on A. baumannii, the “MIC A. baumannii” value was found to be 1.56 µM. For the same molecule, the “hemolytic activity at 10-fold the MIC” value in the data set with horse red blood cells is “below 10%”. Moreover, in the data set on S. enterica, the “MIC S. enterica” value stood at 12.5 µM. Further, the “MIC P. aeruginosa 827632” value in the data set on P. aeruginosa 827632 came out at 12.5 µM. Besides, the “MIC A. baumannii 3862” value with A. baumannii 3862 was found to be 0.78 µM. Further, in the data set with A. baumannii 3878, the “MIC A. baumannii 3878” value amounted to 1.56 µM. The “MIC A. baumannii 3879” value against A. baumannii 3879 turned out to be 1.56 µM. Further, the “MIC S. typhimurium 324” value against S. typhimurium 324 came to 6.25 µM. Further, the “MIC E. coli 116878” value in the data set with E. coli 116878 worked out at 6.25 µM. Further, in the data set on S. typhimurium 365, the “MIC S. typhimurium 365” value was determined as 6.25 µM. Further, the “MIC A. baumannii 3880” value with A. baumannii 3880 was 1.56 µM. Also, the “MIC P. aeruginosa 827651” value with P. aeruginosa 827651 is 25 µM. Also, in the data set on E. coli cf073, the “MIC E. coli cf073” value stood at 3.13 µM. The “MIC in Pseudomonas sp., peptides incubated with human serum” value in the data set on Pseudomonas sp. [4] was found to be 25 µM. In addition, in the data set on Pseudomonas sp. [3], the “MIC Pseudomonas sp.” value turned out to be 1.56 µM. In addition, the “MBC Escherichia coli” value against Escherichia coli was determined as 1.56 µM. The “MBC Salmonella enterica” value with Salmonella enterica worked out at 12.5 µM. Also, the “MBC Acinetobacter baumannii” value with Acinetobacter baumannii is reported as 1.56 µM. Besides, the “MBC Shigella flexneri” value against Shigella flexneri came to 3.13 µM.
